The source of these data is patent US9951063B2, “8-(piperazin-1-yl)-1,2,3,4-tetrahydro-isoquinoline derivatives” (IDORSIA PHARMACEUTICALS LTD, priority 2014, dated 2018).

The test deals with human CXCR3A (Homo sapiens (Human), UniProt P49682). The experiment in a line: FLIPR assay (inhibition of CXCL10-induced calcium signal). Conditions: engineered CHO-K1 cells expressing human CXCR3A coupled to Galpha(16); Fluo-4-AM; CXCL10 agonist 20 nM; mean values where determined several times. It is filed as cell-based. How it is done: The bioactivity of compounds is tested in a fluorometric imaging plate reader (FLIPR: Molecular Devices) using engineered CHO-K1 cells expressing the human CXCR3A (GenBank: AY242128) coupled to a G protein (Galpha(16)). Cells are plated the day prior to bioassay in F12 medium supplemented with 10% FBS and G418 and hygromycin antibiotics to maintain recombinant selection. At the day of bioassay, cells are washed and dye loaded for one hour with Fluo-4-AM (Invitrogen) in Hanks Balanced Salt Solution (Invitrogen), buffered with 20 mM Hepes at pH 7.4 and sodium bicarbonate (0.038%), containing 5 mM probenecid. This buffer, but lacking the dye and containing probenecid at a concentration of 2.5 mM, is also used for washing steps (wash buffer); or lacking both dye and probenecid but supplemented with 0.1% BSA for compound dilution steps (dilution buffer). Cells are washed free of excess dye and 60 microliter of wash buffer is added. Stock solutions of test compounds are made up at a concentration of 10 mM in DMSO, and serially diluted in dilution buffer to concentrations required for inhibition dose response curves. After a 10 minute incubation period at 37° C., 10 microliters of each compound dilution are transferred from a compound plate to the plate containing the recombinant cells in the FLIPR instrument according to the manufacturer's instructions. Following basal readings, 10 microliter CXCL10 agonist at a concentration of 20 nM (from Peprotech) is added, again using the FLIPR instrument. Changes in fluorescence are monitored before and after addition of the test compounds. Emission peak values above base level after CXCL10 addition are exported after base line subtraction.
Sequence of human CXCR3A (P49682 whole entry): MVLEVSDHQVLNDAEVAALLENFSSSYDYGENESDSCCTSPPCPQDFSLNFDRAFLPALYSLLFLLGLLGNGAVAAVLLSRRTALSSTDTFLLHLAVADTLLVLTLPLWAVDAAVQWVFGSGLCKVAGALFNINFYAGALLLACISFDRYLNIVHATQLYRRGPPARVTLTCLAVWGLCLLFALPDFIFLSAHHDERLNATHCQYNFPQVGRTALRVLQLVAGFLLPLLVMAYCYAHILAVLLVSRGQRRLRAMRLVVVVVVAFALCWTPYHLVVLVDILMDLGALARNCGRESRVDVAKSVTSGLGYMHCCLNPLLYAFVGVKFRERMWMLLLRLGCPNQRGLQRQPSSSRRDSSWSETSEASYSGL
The calculated IC50 values may fluctuate depending on the daily assay performance. Fluctuations of this kind are known to those skilled in the art. In the case where IC50 values have been determined several times for the same compound, mean values are given.
With `COc1nc(OC)nc(N2CCc3c(C(F)(F)F)ccc(N4CCN(C(=O)Cn5cnc6cccnc65)[C@H](C)C4)c3C2)n1` [Example 19, 1-{(R)-4-[2-(4,6-Dimethoxy-[1,3,5]triazin-2-yl)-5-trifluoromethyl-1,2,3,4-tetrahydro-isoquinolin-8-yl]-2-methyl-piperazin-1-yl}-2-imidazo[4,5-b]pyridin-3-yl-ethanone], the IC50 came out at 11.7 nM.
For `Cc1cc(C)n(CC(=O)N2CCN(c3ccc(C(F)(F)F)c4c3CN(c3nc5ccc(C#N)cc5s3)CC4)C[C@H]2C)n1` [Example 11, 2-(8-{(R)-4-[2-(3,5-Dimethyl-pyrazol-1-yl)-acetyl]-3-methyl-piperazin-1-yl}-5-trifluoromethyl-3,4-dihydro-1H-isoquinolin-2-yl)-benzothiazole-6-carbonitrile], the IC50 stood at 6.58 nM.
In the case of `COc1cncc(N2CCc3cccc(N4CCN(C(=O)Cn5cnc6cccnc65)[C@H](C)C4)c3C2)n1` [Example 120, 2-Imidazo[4,5-b]pyridin-3-yl-1-{(R)-4-[2-(6-methoxy-pyrazin-2-yl)-1,2,3,4-tetrahydro-isoquinolin-8-yl]-2-methyl-piperazin-1-yl}-ethanone], the IC50 was 2.03 nM.
To `Cc1ccnn1CC(=O)N1CCN(c2ccc(C(F)(F)F)c3c2CN(c2nc(C(F)(F)F)cs2)CC3)C[C@H]1C` [Example 45, 2-(5-Methyl-pyrazol-1-yl)-1-{(R)-2-methyl-4-[5-trifluoromethyl-2-(4-trifluoromethyl-thiazol-2-yl)-1,2,3,4-tetrahydro-isoquinolin-8-yl]-piperazin-1-yl}-ethanone] belongs 12.7 nM.
To `Cn1c(=O)n(CC(=O)N2CCN(c3cccc4c3CN(C(=O)c3ccccc3)CC4)CC2)c2ccccc21` [Example 140, 1-{2-[4-(2-Benzoyl-1,2,3,4-tetrahydro-isoquinolin-8-yl)-piperazin-1-yl]-2-oxo-ethyl}-3-methyl-1,3-dihydro-benzoimidazol-2-one] belongs 51.2 nM.
As for `C[C@@H]1CN(c2ccc(C(F)(F)F)c3c2CN(c2cnc(N(C)C)nc2)CC3)CCN1C(=O)Cn1ncc2cccnc21` [Example 53, 1-{(R)-4-[2-(2-Dimethylamino-pyrimidin-5-yl)-5-trifluoromethyl-1,2,3,4-tetrahydro-isoquinolin-8-yl]-2-methyl-piperazin-1-yl}-2-pyrazolo[3,4-b]pyridin-1-yl-ethanone], the figure is 6.15 nM; as for `CCOc1ncc(N2CCc3c(C(F)(F)F)ccc(N4CCN(C(=O)Cn5ccc(C)n5)[C@@H](C)C4)c3C2)cn1` [Example 36, 1-{(S)-4-[2-(2-Ethoxy-pyrimidin-5-yl)-5-trifluoromethyl-1,2,3,4-tetrahydro-isoquinolin-8-yl]-2-methyl-piperazin-1-yl}-2-(3-methyl-pyrazol-1-yl)-ethanone], 6.27 nM.
On to `CCCc1ncc(N2CCc3c(C(F)(F)F)ccc(N4CCN(C(=O)Cn5cnc6cccnc65)[C@H](C)C4)c3C2)cn1` [Example 22, 2-Imidazo[4,5-b]pyridin-3-yl-1-{(R)-2-methyl-4-[2-(2-propyl-pyrimidin-5-yl)-5-trifluoromethyl-1,2,3,4-tetrahydro-isoquinolin-8-yl]-piperazin-1-yl}-ethanone], for which the IC50 was found to be 10.7 nM.
Turning to `C[C@@H]1CN(c2cccc3c2CN(C(=O)c2cocn2)CC3)CCN1C(=O)Cn1cnc2cccnc21` [Example 65, 2-Imidazo[4,5-b]pyridin-3-yl-1-{(R)-2-methyl-4-[2-(oxazole-4-carbonyl)-1,2,3,4-tetrahydro-isoquinolin-8-yl]-piperazin-1-yl}-ethanone], the IC50 came to 483 nM.
To `COc1ncc(N2CCc3c(C(F)(F)F)ccc(N4CCN(C(=O)Cn5nc(C)nc5C)[C@H](C)C4)c3C2)cn1` [Example 23, 2-(3,5-Dimethyl-[1,2,4]triazol-1-yl)-1-{(R)-4-[2-(2-methoxy-pyrimidin-5-yl)-5-trifluoromethyl-1,2,3,4-tetrahydro-isoquinolin-8-yl]-2-methyl-piperazin-1-yl}-ethanone] belongs 17.1 nM; to `C[C@@H]1CN(c2ccc(C(F)(F)F)c3c2CN(C(=O)OCc2ccccc2)CC3)CCN1C(=O)Cn1cnc2cccnc21` [Example 145, 8-[(R)-4-(2-Imidazo[4,5-b]pyridin-3-yl-acetyl)-3-methyl-piperazin-1-yl]-5-trifluoromethyl-3,4-dihydro-1H-isoquinoline-2-carboxylic acid benzyl ester], 25.6 nM; to `CCOc1ncc(N2CCc3c(C(F)(F)F)ccc(N4CCN(C(=O)Cn5cnc6cccnc65)[C@@H](C)C4)c3C2)cn1` [Example 34, 1-{(S)-4-[2-(2-Ethoxy-pyrimidin-5-yl)-5-trifluoromethyl-1,2,3,4-tetrahydro-isoquinolin-8-yl]-2-methyl-piperazin-1-yl}-2-imidazo[4,5-b]pyridin-3-yl-ethanone], 16.7 nM.
To `C[C@@H]1CN(c2cccc3c2CN(c2cnc(C(F)(F)F)nc2)CC3)CCN1C(=O)Cn1cnc2cccnc21` [Example 107, 2-Imidazo[4,5-b]pyridin-3-yl-1-{(R)-2-methyl-4-[2-(2-trifluoromethyl-pyrimidin-5-yl)-1,2,3,4-tetrahydro-isoquinolin-8-yl]-piperazin-1-yl}-ethanone] belongs 1.74 nM; to `Cc1cnc(N2CCc3cccc(N4CCN(C(=O)Cn5cnc6cccnc65)[C@H](C)C4)c3C2)nc1` [Example 108, 2-Imidazo[4,5-b]pyridin-3-yl-1-{(R)-2-methyl-4-[2-(5-methyl-pyrimidin-2-yl)-1,2,3,4-tetrahydro-isoquinolin-8-yl]-piperazin-1-yl}-ethanone], 32.6 nM; to `C[C@@H]1CN(c2cccc3c2CN(C(=O)CCc2ccccc2)CC3)CCN1C(=O)Cn1cnc2cccnc21` [Example 83, 1-{8-[(R)-4-(2-Imidazo[4,5-b]pyridin-3-yl-acetyl)-3-methyl-piperazin-1-yl]-3,4-dihydro-1H-isoquinolin-2-yl}-3-phenyl-propan-1-one], 450 nM.
For the molecule `C[C@@H]1CN(c2cccc3c2CN(C(=O)CN2CCOCC2)CC3)CCN1C(=O)Cn1cnc2cccnc21` [Example 88, 2-Imidazo[4,5-b]pyridin-3-yl-1-{(R)-2-methyl-4-[2-(2-morpholin-4-yl-acetyl)-1,2,3,4-tetrahydro-isoquinolin-8-yl]-piperazin-1-yl}-ethanone], the 50% inhibitory concentration (IC50) was 1910 nM.
To `CCOc1ncc(N2CCc3c(C(F)(F)F)ccc(N4CCN(C(=O)Cn5nc(C)cc5C)[C@H](C)C4)c3C2)cn1` [Example 55, 2-(3,5-Dimethyl-pyrazol-1-yl)-1-{(R)-4-[2-(2-ethoxy-pyrimidin-5-yl)-5-trifluoromethyl-1,2,3,4-tetrahydro-isoquinolin-8-yl]-2-methyl-piperazin-1-yl}-ethanone] belongs 10 nM.
To `C[C@@H]1CN(c2cccc3c2CN(C(=O)c2ccc(C(F)(F)F)cc2)CC3)CCN1C(=O)Cn1cnc2cccnc21` [Example 77, 2-Imidazo[4,5-b]pyridin-3-yl-1-{(R)-2-methyl-4-[2-(4-trifluoromethyl-benzoyl)-1,2,3,4-tetrahydro-isoquinolin-8-yl]-piperazin-1-yl}-ethanone] belongs 92.3 nM.
As to `Cc1cc(C)n(CC(=O)N2CCN(c3ccc(C(F)(F)F)c4c3CN(c3cnc(C5CC5)nc3)CC4)C[C@H]2C)n1` [Example 15, 1-{(R)-4-[2-(2-Cyclopropyl-pyrimidin-5-yl)-5-trifluoromethyl-1,2,3,4-tetrahydro-isoquinolin-8-yl]-2-methyl-piperazin-1-yl}-2-(3,5-dimethyl-pyrazol-1-yl)-ethanone], the IC50 was found to be 3.58 nM.
As for `C[C@@H]1CN(c2ccc(C(F)(F)F)c3c2CN(c2nc(C(F)(F)F)cs2)CC3)CCN1C(=O)Cn1ncc2cccnc21` [Example 43, 1-{(R)-2-Methyl-4-[5-trifluoromethyl-2-(4-trifluoromethyl-thiazol-2-yl)-1,2,3,4-tetrahydro-isoquinolin-8-yl]-piperazin-1-yl}-2-pyrazolo[3,4-b]pyridin-1-yl-ethanone], the IC50 was 38.6 nM.
To `O=C(Cn1cnc2cccnc21)N1CCN(c2cccc3c2CN(C(=O)OCc2ccccc2)CC3)CC1` [Example 137, 8-[4-(2-Imidazo[4,5-b]pyridin-3-yl-acetyl)-piperazin-1-yl]-3,4-dihydro-1H-isoquinoline-2-carboxylic acid benzyl ester] belongs 9.1 nM; to `COc1ncc(N2CCc3c(C(F)(F)F)ccc(N4CCN(C(=O)Cn5cnc6cccnc65)[C@H](C)C4)c3C2)cn1` [Example 17, 2-Imidazo[4,5-b]pyridin-3-yl-1-{(R)-4-[2-(2-methoxy-pyrimidin-5-yl)-5-trifluoromethyl-1,2,3,4-tetrahydro-isoquinolin-8-yl]-2-methyl-piperazin-1-yl}-ethanone], 9.2 nM.
To `Cc1nc(C)n(CC(=O)N2CCN(c3cccc4c3CN(C(=O)OCc3ccccc3)CC4)C[C@H]2C)n1` [Example 136, 8-{(R)-4-[2-(3,5-Dimethyl-[1,2,4]triazol-1-yl)-acetyl]-3-methyl-piperazin-1-yl}-3,4-dihydro-1H-isoquinoline-2-carboxylic acid benzyl ester] belongs 33.2 nM.

As a reminder, the IC50 is the concentration that inhibits the measured activity by half.
